Experimental data from US10047089B2, “Dihydro-6-azaphenalene derivatives for the treatment of CNS, oncological diseases and related disorders” (Collaborative Medicinal Development, LLC, priority 2012, dated 2018).

Columns and labels:
[1] = molecular target: T1, zinc induced Aß aggregates (Homo sapiens, UniProt P05067); assay: Bis-ANS fluorescence assay: reversal (disaggregation) of zinc induced Aß aggregates; format: biochemical; settings: bisANS assay, zinc induced aggregates (FIG. 1, solid arrow)
T1 construct: Effect of bis-ANS on Aβ1-42 Solubility and Precipitation by Zn^2+
T1 sequence (P05067 672-713): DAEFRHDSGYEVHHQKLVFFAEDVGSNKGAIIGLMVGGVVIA
Text: (§1) Measurement of inhibition or reversal of protein aggregation may be carried out using such assays as Bis-ANS Fluorescence as described in, for example, W. T. Chen et al., J. Biol. Chem, 2011, 286 (11), 9646, or thioflavin T assay as disclosed herein. FIG. 1 depicts the measurement of aggregation prevention by added zinc and disaggregation of zinc induced aggregates by AC047 in a bisANS assay. In the presence of soluble Aß, zinc induces aggregation within milliseconds. This aggregation is detected by an increase in bisANS fluorescence. An excess of EDTA serves as a control by binding zinc and preventing aggregation. Both prevention of aggregation and disaggregation can be detected in the assay. […] The compounds described above were evaluated for the inhibition and reversal of protein aggregation as carried out using such assays as Bis-ANS Fluorescence as described in, for example, J. Biol. Chem, 2011, 286 (11), 9646. All compounds prepared above were measured to show EC50 between 0.000001 to 0.10 mM in both assays in the presence of Zinc (II). Aβ1-42 (25 μM) in Tris-HCl buffer (50 mM, pH7.4) was incubated at RT for 10 min in the presence or absence of ZnCl2 (25 μM) and bis-ANS (50 μM). […] A sample of the supernatant was then collected and compared by dot blot for peptide content to the sample of starting material to quantify how much original peptide had been lost due to precipitation.

[2] = molecular target: T2, Aß (Homo sapiens, UniProt P05067); assay: Bis-ANS fluorescence assay: inhibition (prevention) of zinc induced Aß aggregation; format: biochemical; settings: bisANS assay, soluble Aß plus added zinc (FIG. 1, dotted arrow)
T2 construct: Effect of bis-ANS on Aβ1-42 Solubility and Precipitation by Zn^2+
T2 sequence (P05067 672-713): as above
Text: as §1

In the case of O=C1c2ccnc3c(O)ccc(c23)C(=O)N1Cc1ccccc1 [AC047, 5-benzyl-9-hydroxy-4H-benzo[de][2,6]naphthyridine-4,6(5H)-dione], the “elimination of zinc induced Aß aggregates (disaggregation)” value [1] is reported as “can eliminate zinc induced Aß aggregates” and the “prevention of zinc induced aggregation” value [2] is reported as “can prevent zinc induced aggregation”.
